Like-named read-outs stand apart in the source and are kept apart here. Where a SMILES comes first, the peptide text is derived from it. The star is where a group is joined. pNA = O=[N+]([O-])c1ccc(N*)cc1; AMC = Cc1cc(=O)oc2cc(N*)ccc12; βNA = c1ccc2cc(N*)ccc2c1; Cbz = O=C(OCc1ccccc1)*; CHN2 = [N-]=[N+]=C*
How the values were obtained:
CTL precursors = test: MLC activated anti-H-2 specific CTL from spleen cells; format: in vivo, murine; conditions: spleen cells of saline injected mice treated with 250 μM Leu-Leu-Ome
Excerpt: (§1) The Yac-1 represents a standard target for natural killer (NK) cells.
Unlike control cells, spleen cells in which DPPI activity was inhibited were resistant to any discernible toxic effects of Leu--Leu--OMe on NK function of the capacity to generate anti-H-2^d specific CTL.

NK cells (Yac-1 targets) = test: NK function of spleen cells, specific lysis of Yac-1; format: in vivo, murine; conditions: spleen cells of saline injected mice treated with 250 μM Leu-Leu-Ome
Excerpt: as §1

[1] = tested on: BLT esterase (granzyme A); test: BLT esterase activity in IL2 activated human PBL; format: cell-based; conditions: IL2 activated Leu--Leu--OMe treated PBL
Excerpt: The cells were then harvested, disrupted in a dounce homogenizer, the nuclei pelleted and residual intact cells removed by centrifugation and the granule fraction localized on discontinuous Percoll gradients. […] Thus, Leu--Leu--OMe sensitive, DPPI enriched cells are the source of BLT esterase in such IL2 activated cultures.

[2] = target: T1, human dipeptidyl peptidase-I (Homo sapiens, UniProt P53634); test: Effect of protease inhibitors on DPPI activity (purified enzyme); format: biochemical; set-up: Human DPPI is now established to constitute a 200,000 Da glycoprotein with 24,000 Da subunits; from tissue; host or cells: human cadaveric spleen
Procedure: Note. Purified human dipeptidyl peptidaseI (0.4 μg) was preincubated
with each of the inhibitors at the stated concentration for 15 min at
37° C.. Each sample was diluted 3fold with assay buffer containing
substrate and incubated for an additional 20 min.

[3] = target: human granzyme A proenzyme (human) (UniProt P12544)
[4] = target: propeptide-bearing form of human cathepsin G (human) (UniProt P08311)
[5] = target: human leukocyte elastase proenzyme (human) (UniProt P08246)
NK cells = test: Depletion of NK cells by dipeptide esters; format: cell-based
DPPI [6] = target: T2, DPPI (Homo sapiens, UniProt P53634); test: Substrate specificity of human DPPI: hydrolysis of synthetic peptide substrates; format: biochemical; set-up: Human DPPI is now established to constitute a 200,000 Da glycoprotein with 24,000 Da subunits; from tissue; host or cells: human cadaveric spleen; unit not given here
Excerpt: The specificity of human DPPI was studied using a variety of synthetic peptide substrates. These substrates appear in Table 5.
Substrates with blocked amino-termini, with proline at the P1 position, arginine at the P2, or containing only single amino acids, were not hydrolyzed. […] The amino-terminal sequence of bovine α-casein, Arg--Pro, prohibits the processive cleavage of amino-terminal dipeptides from this protein and therefore should increase the ability to specifically detect endoproteolytic activity, if present.

[7] = target: T1, human dipeptidyl peptidase-I
[8] = target: T3, BLT esterase (granzyme A) (Mus musculus, UniProt P11032); test: BLT esterase activity in granule fractions of control CD8(+) CTL, in vitro incubation with inhibitor; format: biochemical, murine; conditions: in vitro incubation with 1 mM
T3 construct: endogenous in cells; host or cells: alloreactive murine CD8(+) T cells, whole cells or Percoll granule fractions
T3 sequence (P11032 29-260): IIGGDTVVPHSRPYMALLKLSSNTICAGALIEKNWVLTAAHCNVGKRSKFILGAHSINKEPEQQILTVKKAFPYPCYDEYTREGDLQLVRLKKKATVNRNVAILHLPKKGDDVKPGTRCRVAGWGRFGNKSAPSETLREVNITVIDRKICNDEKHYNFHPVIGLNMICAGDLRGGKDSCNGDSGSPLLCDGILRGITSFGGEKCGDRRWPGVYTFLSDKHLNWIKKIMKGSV
Procedure: 193, Academic Press, New York).
Cells were incubated for 5 minutes on ice in hypotonic homogenization buffer (0.1× PBS salts, 1 mM MgCl2). The cells were disrupted with a glass pestle homogenizer and isotonic conditions restored by the addition of 10× PBS salts. The homogenates were cleared of cell debris and intact cells by centrifugation at 600 xg for 2 minutes. The soluble extracts were layered on discontinuous Percoll gradients (6 ml 39%, 6 ml 90% Percoll) and centrifuged .for one hour at 17,000 xg. The gradients were fractionated by removing 1 ml aliquots from the top.
Alloreactive CD8(+) T-cells were homogenized and fractionated on discontinuous Percoll gradients.

[9] = target: murine granzyme A proenzyme (murine) (UniProt P11032); conditions: scale: Δabsorbance410/hour per cells
DPPI [10] = target: T2, DPPI; conditions: cited from earlier work
[11] = inhibitor 1 mM, preincubated 15 min at 37° C.
[12] = inhibitor 1 mM, preincubated 15 min at 37° C., read-out: Percentage control activity

## COC(=O)[C@H](CC(C)C)NC(=O)[C@@H](N)CC(C)C [Leu--Leu--OMe]
CTL precursors; 20:1
  MLC Activated Anti-H-2° Spec. CTL: 1
CTL precursors; 80:1
  MLC Activated Anti-H-2° Spec. CTL: 3
NK cells (Yac-1 targets); 20:1
  NK Function % Specific Lysis Yac-1: < 1 % Specific Lysis
NK cells (Yac-1 targets); 80:1
  NK Function % Specific Lysis Yac-1: < 1 % Specific Lysis
[1]
  BLT esterase activity: could not be detected

## Cc1ccc(S(=O)(=O)NC(CCCCN)C(=O)CCl)cc1 (stereo not shown) [TLCK, 1-chloro-3-tosylamido-7-amino-2-heptanone]
[2]; [11]
  Percentage control activity: 5%
[2]; screening conditions pH 5.5
  effect on DPPI activity (in words): potently inhibited

## human dipeptidyl peptidase-I (from UniProt P53634) (enzyme)
CBZ-Arg-Arg-βNA
  hydrolysis of synthetic peptide substrate by purified human DPPI (values at 100 µM and 500 µM substrate; value given is at 500 µM): 0 not printed
Gly-Pro-MNA
  hydrolysis of synthetic peptide substrate by purified human DPPI (values at 100 µM and 500 µM substrate; value given is at 500 µM): 0 not printed
Ser-Tyr-βNA
  hydrolysis of synthetic peptide substrate by purified human DPPI (values at 100 µM and 500 µM substrate; value given is at 500 µM): 2000 not printed
Suc-Ala-Ala-Pro-Phe-pNA
  hydrolysis of synthetic peptide substrate by purified human DPPI (values at 100 µM and 500 µM substrate; value given is at 500 µM): 0 not printed
CBZ-Gly-Pro-Arg-AMC
  hydrolysis of synthetic peptide substrate by purified human DPPI (values at 100 µM and 500 µM substrate; value given is at 500 µM): 0 not printed
Arg-Arg-βNA
  hydrolysis of synthetic peptide substrate by purified human DPPI (values at 100 µM and 500 µM substrate; value given is at 500 µM): 0 not printed
Gly-Phe-MNA
  hydrolysis of synthetic peptide substrate by purified human DPPI (values at 100 µM and 500 µM substrate; value given is at 500 µM): 5750 not printed
Gly-Phe-pNA
  hydrolysis of synthetic peptide substrate by purified human DPPI (values at 100 µM and 500 µM substrate; value given is at 500 µM): 380 not printed
Suc-Ala-Ala-Ala-pNA
  hydrolysis of synthetic peptide substrate by purified human DPPI (values at 100 µM and 500 µM substrate; value given is at 500 µM): 0 not printed
Gly-Arg-MNA
  hydrolysis of synthetic peptide substrate by purified human DPPI (values at 100 µM and 500 µM substrate; value given is at 500 µM): 4750 not printed
Pro-Phe-Arg-AMC
  hydrolysis of synthetic peptide substrate by purified human DPPI (values at 100 µM and 500 µM substrate; value given is at 500 µM): 0 not printed
Ser-Tyr-MNA
  hydrolysis of synthetic peptide substrate by purified human DPPI (values at 100 µM and 500 µM substrate; value given is at 500 µM): 1750 not printed
Gly-Phe-βNA
  hydrolysis of synthetic peptide substrate by purified human DPPI (values at 100 µM and 500 µM substrate; value given is at 500 µM): 4380 not printed
Asp-Ala-βNA
  hydrolysis of synthetic peptide substrate by purified human DPPI (values at 100 µM and 500 µM substrate; value given is at 500 µM): 1000 not printed
CBZ-Val-Leu-Arg-MNA
  hydrolysis of synthetic peptide substrate by purified human DPPI (values at 100 µM and 500 µM substrate; value given is at 500 µM): 0 not printed
Gly-Pro-βNA
  hydrolysis of synthetic peptide substrate by purified human DPPI (values at 100 µM and 500 µM substrate; value given is at 500 µM): 0 not printed
Ala-Ala-Val-Ala-pNA
  hydrolysis of synthetic peptide substrate by purified human DPPI (values at 100 µM and 500 µM substrate; value given is at 500 µM): 120 not printed
Gly-Phe-AMC
  hydrolysis of synthetic peptide substrate by purified human DPPI (values at 100 µM and 500 µM substrate; value given is at 500 µM): 6120 not printed
Ala-Ala-pNA
  hydrolysis of synthetic peptide substrate by purified human DPPI (values at 100 µM and 500 µM substrate; value given is at 500 µM): 1000 not printed
[3]
  generation of granzyme A (BLT esterase) activity in human LAK cells with endogenous DPPI inhibited: < 90 % reduction
[4]
  processing of newly synthesized cathepsin G to the active form in U-937 cells with endogenous DPPI inhibited (3H-Ile pulse-chase, aprotinin-agarose, radiosequencing): < 10 % of control
[5]
  generation of elastase activity in U-937 cells with endogenous DPPI inhibited for 48 hours: 65 % decrease

## CCN1C(=O)C=CC1=O [N-Ethylmaleimide]
[2]; [12]
  remaining activity at 1000 µM: 63%
[2]; screening conditions pH 5.5
  effect on DPPI activity (in words): inhibited

## CC(C)C[C@H](NC(=O)[C@@H](O)[C@H](N)Cc1ccccc1)C(=O)O [Bestatin]
[2]; inhibitor 500 μg/ml, preincubated 15 min at 37° C., read-out: Percentage control activity
  remaining activity at 500 µg/mL: 103%
[2]; screening conditions pH 5.5
  effect on DPPI activity (in words): no effect

## c1cnc2c(c1)ccc1cccnc12 [1,10-Phenanthroline]
[2]; [12]
  remaining activity at 1000 µM: 98%

## CCCC[C@H](NC(=O)[C@@H](N)CCCC)C(=O)OC [norleucyl-norleucine methyl ester]
NK cells
  more active than Leu--Leu--OMe: 2 fold

## O=C(O)CI [Iodoacetic acid]
[2]; pH 5.5
  effect on DPPI activity (in words): potently inhibited
[2]; read-out: Percentage control activity
  remaining activity at 1000 µM: 10%

## COc1cc(NC(=O)C(CCCN=C(N)N)NC(=O)CN)cc2ccccc12 (stereo not drawn) [Gly-Arg-MNA]
DPPI [6]; substrate concentration 100 μM
  hydrolysis of substrate peptide by human DPPI: 2500
DPPI [6]; substrate concentration 500 μM
  hydrolysis of substrate peptide by human DPPI: 4750

## COC([CH2][Hg+])CNC(=O)c1ccccc1OCC(=O)O.[OH-] (stereo not shown) [Mersalyl acid]
[2]; [11]
  Percentage control activity: 3%
[2]; screening conditions pH 5.5
  effect on DPPI activity (in words): potently inhibited

## c1ccc(SSc2ccccn2)nc1 [2,2'-Dithiodipyridine]
[2]; inhibitor 400 μM, preincubated 15 min at 37° C., read-out: Percentage control activity
  remaining activity at 400 µM: 9%
[2]; screening conditions pH 5.5
  effect on DPPI activity (in words): inhibited

## Cystatin [listing 1 of 2 here]
[7]
  Percentage control activity of purified human DPPI (% of control activity (at 50 µg/ml)): 32

## O=S(=O)(F)Cc1ccccc1 [PMSF, phenylmethylsulfonylfluoride]
[8]
  BLT esterase activity in granule fractions inhibited: > 95%
[2]; screening conditions pH 5.5
  effect on DPPI activity (in words): no effect

## CC(C)C[C@H](NC(=O)[C@@H](N)CC(C)C)C(=O)OCc1ccccc1 [benzyl ester derivative of Leu--Leu--OMe]
NK cells
  more potent than Leu--Leu--OMe in mediating depletion of NK cells: 5 fold

## C[C@H](NC(=O)CCC(=O)O)C(=O)N[C@@H](C)C(=O)N[C@@H](C)C(=O)Nc1ccc([N+](=O)[O-])cc1 [Suc-Ala-Ala-Ala-pNA]
DPPI [6]; substrate concentration 100 μM
  hydrolysis of substrate peptide by human DPPI: 0
DPPI [6]; substrate concentration 500 μM
  hydrolysis of substrate peptide by human DPPI: 0

## murine dipeptidyl peptidase-I (from UniProt P97821) (enzyme)
[9]
  generation of BLT esterase activity in murine alloreactive CD8(+) T cells with DPPI inhibited: 3.3

## NCC(=O)N[C@@H](Cc1ccccc1)C(=O)Nc1ccc([N+](=O)[O-])cc1 [Gly-Phe-pNA] (H-Gly-Phe-pNA)
DPPI [6]; substrate concentration 100 μM
  hydrolysis of substrate peptide by human DPPI: 120
DPPI [6]; substrate concentration 500 μM
  hydrolysis of substrate peptide by human DPPI: 380

## CC(C)C[C@H](N)C(=O)Nc1ccc2ccccc2c1 [Leu-βNA]
DPPI [6]; substrate concentration 100 μM
  hydrolysis of substrate peptide by human DPPI: 0
DPPI [6]; substrate concentration 500 μM
  hydrolysis of substrate peptide by human DPPI: 0

## C[C@H](N)C(=O)Nc1ccc2ccccc2c1 [Ala-βNA]
DPPI [6]; substrate concentration 100 μM
  hydrolysis of substrate peptide by human DPPI: 0
DPPI [6]; substrate concentration 500 μM
  hydrolysis of substrate peptide by human DPPI: 0

## [N-]=[N+]=CC(=O)C(Cc1ccccc1)NC(=O)CNC(=O)C(Cc1ccccc1)NC(=O)OCc1ccccc1 (stereo not drawn) [Z--Phe--Gly--Phe--CHN2] (Cbz-Phe-Gly-Phe-CHN2; configuration not given here)
DPPI [10]
  less reactive with DPPI than Gly--Phe--CHN2: 3 orders of magnitude

## N[C@@H](Cc1ccccc1)C(=O)Nc1ccc2ccccc2c1 [Phe-βNA]
DPPI [6]; substrate concentration 100 μM
  hydrolysis of substrate peptide by human DPPI: 0
DPPI [6]; substrate concentration 500 μM
  hydrolysis of substrate peptide by human DPPI: 0

## O=C(Nc1ccc2ccccc2c1)[C@@H]1CCCN1 [Pro-βNA]
DPPI [6]; substrate concentration 100 μM
  hydrolysis of substrate peptide by human DPPI: 0
DPPI [6]; substrate concentration 500 μM
  hydrolysis of substrate peptide by human DPPI: 0

## Cc1cc(=O)oc2cc(NC(=O)[C@H](Cc3ccccc3)NC(=O)CN)ccc12 [Gly-Phe-AMC] (H-Gly-Phe-{AMC})
DPPI [6]; substrate concentration 100 μM
  hydrolysis of substrate peptide by human DPPI: 3500
DPPI [6]; substrate concentration 500 μM
  hydrolysis of substrate peptide by human DPPI: 6120

## Cystatin [listing 2 of 2 here]
[2]; inhibitor 50 μg/ml, preincubated 15 min at 37° C.
  Percentage control activity: 32%
[2]; screening conditions pH 5.5
  effect on DPPI activity (in words): potently inhibited

## NCC(=O)N1CCC[C@H]1C(=O)Nc1ccc2ccccc2c1 [Gly-Pro-βNA] (H-Gly-Pro-βNA)
DPPI [6]; substrate concentration 100 μM
  hydrolysis of substrate peptide by human DPPI: 0
DPPI [6]; substrate concentration 500 μM
  hydrolysis of substrate peptide by human DPPI: 0
